Columns and labels:
Mus musculus [1] = experiment: Peroxisomal enzyme induction in mice after administration of 400 mg/kg perorally for 4 days was determined.; assay type: functional; settings: route oral
[2] = biological target: T1, Cysteinyl leukotriene receptor 1 (Cavia porcellus, UniProt Q2NNR5); experiment: Concentration required for inhibition of binding of [3H]LTD4 to guinea pig lung membranes; assay type: tissue-based, Membrane
T1 sequence (Q2NNR5 whole entry): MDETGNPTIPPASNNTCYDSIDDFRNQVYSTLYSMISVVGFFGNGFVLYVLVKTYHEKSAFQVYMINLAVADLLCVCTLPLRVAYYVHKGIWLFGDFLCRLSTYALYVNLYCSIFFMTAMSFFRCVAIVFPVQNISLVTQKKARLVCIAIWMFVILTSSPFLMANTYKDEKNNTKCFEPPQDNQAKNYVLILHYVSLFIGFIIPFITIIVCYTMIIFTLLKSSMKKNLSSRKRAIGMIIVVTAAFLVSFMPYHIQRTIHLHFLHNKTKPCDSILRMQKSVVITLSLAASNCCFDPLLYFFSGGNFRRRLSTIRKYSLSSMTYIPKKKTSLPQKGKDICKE

Mus musculus [3] = experiment: Liver weight increase in mice after administration of 400 mg/kg perorally for 4 days was determined.; assay type: functional; settings: route oral
Mus musculus [4] = experiment: Peroxisomal enzyme induction in mice after administration of 200 mg/kg perorally for 4 days was determined.; assay type: functional; settings: route oral
Mus musculus [5] = experiment: Liver weight increase in mice after administration of 200 mg/kg perorally for 4 days was determined.; assay type: functional; settings: route oral
[6] = biological target: T1, Cysteinyl leukotriene receptor 1; experiment: Concentration required for inhibition of binding of [3H]-LTD4 to guinea pig lung membranes (different expt); assay type: tissue-based, Membrane
[7] = Bioavailability in squirrel monkey; assay type: ADME, organism-based; settings: saimiri, in vivo; read-out: Bioavailabiility
[8] = Reduction of the increase in pulmonary resistance after 4 hr of administration of 0.01 mg/kg to squirrel monkey; assay type: functional
[9] = Terminal half-life was determined; assay type: ADME
Cavia porcellus = species on record: Cavia porcellus; experiment: Antagonistic activity of leukotriene D4-induced contractions of non-tonal guinea-pig trachea; assay type: functional, organism-based; settings: read-out: pA2 (converted)
[10] = Reduction in the decrease in dynamic compliance after 4 hr of administration of 0.01 mg/kg to squirrel monkey; assay type: functional

SMILES	PEI (Mus musculus [1])	IC50 [2]	LWI (Mus musculus [3])	further results
CC(C)(CC(=O)O)S[C@H](CCc1ccccc1C(C)(C)O)c1cccc(/C=C/c2ccc3ccc(Cl)cc3n2)c1	-10%	0.68 nM	3%	
CC(CS[C@H](CCc1ccccc1C(C)(C)O)c1cccc(/C=C/c2ccc3ccc(Cl)cc3n2)c1)CC(=O)O (some centres not stated)	18%	0.43 nM	10%	
C[C@H](S[C@H](CCc1ccccc1C(C)(C)O)c1cccc(/C=C/c2ccc3ccc(Cl)cc3n2)c1)[C@@H](C)C(=O)O	393%	2.3 nM	32%	
CC[C@H](CS[C@H](CCc1ccccc1C(C)(C)O)c1cccc(/C=C/c2ccc3ccc(Cl)cc3n2)c1)C(=O)O		0.2 nM		PEI (Mus musculus [4]): 608%; LWI (Mus musculus [5]): 63%
CN(C)C(=O)CCS[C@H](SCCC(=O)[O-])c1cccc(/C=C/c2ccc3ccc(Cl)cc3n2)c1.[Na+]	65%	3.1 nM	0%	
CN(C)C(=O)CCSC(SCCC(=O)[O-])c1cccc(/C=C/c2ccc3ccc(Cl)cc3n2)c1.[Na+] (configuration not stated)	318%	1.5 nM	38%	IC50 [6]: 2.5 nM
C[C@H](C(=O)O)[C@@H](C)S[C@H](CCc1ccccc1C(C)(C)O)c1cccc(/C=C/c2ccc3ccc(Cl)cc3n2)c1	91%	0.3 nM	10%	
C[C@H](CC(=O)O)S[C@H](CCc1ccccc1C(C)(C)O)c1cccc(/C=C/c2ccc3ccc(Cl)cc3n2)c1	109%	0.6 nM	12%	
CCC(CC(=O)O)S[C@H](CCc1ccccc1C(C)(C)O)c1cccc(/C=C/c2ccc3ccc(Cl)cc3n2)c1 (some centres not stated)	188%	0.58 nM	9%	
C[C@@H](CC(=O)O)S[C@H](CCc1ccccc1C(C)(C)O)c1cccc(/C=C/c2ccc3ccc(Cl)cc3n2)c1	24%	0.33 nM	11%	
CC(S[C@H](CCc1ccccc1C(C)(C)O)c1cccc(/C=C/c2ccc3ccc(Cl)cc3n2)c1)C(C)C(=O)O (some centres not stated)	673%	0.44 nM	27%	
CC(CC(=O)O)S[C@H](CCc1ccccc1C(C)(C)O)c1cccc(/C=C/c2ccc3ccc(Cl)cc3n2)c1 (some centres not stated)		0.79 nM		PEI (Mus musculus [4]): 22%; LWI (Mus musculus [5]): 5%
CC(C)(CS[C@H](CCc1ccccc1C(C)(C)O)c1cccc(/C=C/c2ccc3ccc(Cl)cc3n2)c1)CC(=O)O	25%	0.3 nM	2%	
CC(C)(O)c1ccccc1CC[C@@H](SCC1(CC(=O)O)CC1)c1cccc(/C=C/c2ccc3ccc(Cl)cc3n2)c1 [MONTELUKAST]	16%		0%	bioavailability [7]: 42%; Reduction [8]: 56%; half-life [9]: 4 h; Kb (Cavia porcellus): 0.501 nM; Reduction [10]: 78%

Source: ChEMBL document CHEMBL1151076, “Discovery of MK-0476, a potent and orally active leukotriene D4 receptor antagonist devoid of peroxisomal enxyme induction” (Bioorg Med Chem Lett, 1995)
